{"source": "ChEMBL document CHEMBL5465560", "about": "“Selectivity Literature for EUbOPEN Chemogenomic Library” (2024)", "key": {"[1]": {"molecular_target": "T1, Aurora kinase A (Homo sapiens) (UniProt O14965)", "T1 sequence (whole entry)": "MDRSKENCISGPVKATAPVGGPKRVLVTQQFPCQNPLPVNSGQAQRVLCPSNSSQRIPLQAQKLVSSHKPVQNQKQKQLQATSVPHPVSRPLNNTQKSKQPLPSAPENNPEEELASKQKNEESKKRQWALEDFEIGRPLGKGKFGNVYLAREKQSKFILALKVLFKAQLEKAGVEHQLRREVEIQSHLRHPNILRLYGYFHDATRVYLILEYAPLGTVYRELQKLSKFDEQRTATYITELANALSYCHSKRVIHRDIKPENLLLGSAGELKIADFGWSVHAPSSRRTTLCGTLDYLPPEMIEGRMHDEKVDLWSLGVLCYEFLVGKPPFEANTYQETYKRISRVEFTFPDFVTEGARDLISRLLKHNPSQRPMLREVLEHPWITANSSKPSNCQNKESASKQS", "assay": "Selectivity interaction (Ambit KINOMEscan and KiNATiv profiling in Jurkat cells) EUB0000090b STK6", "assay_type": "cell-based", "conditions": "at 1 µM"}, "[2]": {"molecular_target": "T2, Megakaryocyte-associated tyrosine-protein kinase (Homo sapiens) (UniProt P42679)", "T2 sequence (whole entry)": "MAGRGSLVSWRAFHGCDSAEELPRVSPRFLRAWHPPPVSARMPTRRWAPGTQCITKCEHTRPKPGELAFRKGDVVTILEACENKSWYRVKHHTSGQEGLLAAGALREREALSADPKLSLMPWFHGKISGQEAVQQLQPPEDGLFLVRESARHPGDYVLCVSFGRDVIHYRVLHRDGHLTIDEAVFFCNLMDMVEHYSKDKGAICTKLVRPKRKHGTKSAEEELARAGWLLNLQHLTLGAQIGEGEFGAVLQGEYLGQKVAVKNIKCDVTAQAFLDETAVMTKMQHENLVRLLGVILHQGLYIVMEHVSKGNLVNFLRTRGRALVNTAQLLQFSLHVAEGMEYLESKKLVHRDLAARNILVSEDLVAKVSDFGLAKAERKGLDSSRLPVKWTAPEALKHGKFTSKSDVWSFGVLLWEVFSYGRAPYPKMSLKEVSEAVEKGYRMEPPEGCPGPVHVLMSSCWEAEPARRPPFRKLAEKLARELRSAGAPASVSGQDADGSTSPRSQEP", "assay": "Selectivity interaction (Kinase panel (Z-LYTE Assay)) EUB0001632a MATK", "conditions": "at 10 µM"}, "[3]": {"molecular_target": "Angiopoietin-1 receptor (Homo sapiens) (UniProt Q02763)", "sequence (Q02763 whole entry)": "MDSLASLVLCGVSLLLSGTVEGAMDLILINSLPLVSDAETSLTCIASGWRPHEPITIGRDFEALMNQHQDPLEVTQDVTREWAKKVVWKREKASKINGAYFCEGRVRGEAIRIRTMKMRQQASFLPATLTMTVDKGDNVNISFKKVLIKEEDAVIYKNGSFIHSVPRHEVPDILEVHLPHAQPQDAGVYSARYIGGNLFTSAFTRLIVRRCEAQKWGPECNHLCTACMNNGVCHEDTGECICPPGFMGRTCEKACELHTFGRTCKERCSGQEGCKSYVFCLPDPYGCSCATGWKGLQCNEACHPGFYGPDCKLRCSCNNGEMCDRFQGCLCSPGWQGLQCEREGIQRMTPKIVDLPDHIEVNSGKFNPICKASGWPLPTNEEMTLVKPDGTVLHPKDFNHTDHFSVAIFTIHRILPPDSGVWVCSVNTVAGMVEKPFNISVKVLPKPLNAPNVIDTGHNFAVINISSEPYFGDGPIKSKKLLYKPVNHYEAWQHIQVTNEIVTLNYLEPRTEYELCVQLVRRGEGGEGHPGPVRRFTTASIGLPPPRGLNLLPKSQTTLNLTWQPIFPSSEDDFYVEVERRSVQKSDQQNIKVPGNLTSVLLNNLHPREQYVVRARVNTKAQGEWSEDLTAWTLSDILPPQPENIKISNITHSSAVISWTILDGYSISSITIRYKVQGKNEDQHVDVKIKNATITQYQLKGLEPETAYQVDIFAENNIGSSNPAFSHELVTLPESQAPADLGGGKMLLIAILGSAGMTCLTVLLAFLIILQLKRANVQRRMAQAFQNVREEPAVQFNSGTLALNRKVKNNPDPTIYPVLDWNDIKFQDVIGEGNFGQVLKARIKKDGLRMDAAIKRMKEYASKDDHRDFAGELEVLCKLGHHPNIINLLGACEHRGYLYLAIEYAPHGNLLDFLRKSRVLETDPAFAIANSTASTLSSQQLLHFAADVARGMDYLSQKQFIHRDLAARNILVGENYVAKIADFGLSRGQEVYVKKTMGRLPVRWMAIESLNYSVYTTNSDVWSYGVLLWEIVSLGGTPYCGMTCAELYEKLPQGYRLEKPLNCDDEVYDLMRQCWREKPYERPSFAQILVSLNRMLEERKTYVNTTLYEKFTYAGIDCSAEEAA", "assay": "Selectivity interaction (KinomeScan (DiscoverX)) EUB0001079a TEK", "conditions": "at 1 µM"}, "[4]": {"molecular_target": "Serine/threonine-protein kinase tousled-like 2 (Homo sapiens) (UniProt Q86UE8)", "sequence (Q86UE8 whole entry, looked up)": "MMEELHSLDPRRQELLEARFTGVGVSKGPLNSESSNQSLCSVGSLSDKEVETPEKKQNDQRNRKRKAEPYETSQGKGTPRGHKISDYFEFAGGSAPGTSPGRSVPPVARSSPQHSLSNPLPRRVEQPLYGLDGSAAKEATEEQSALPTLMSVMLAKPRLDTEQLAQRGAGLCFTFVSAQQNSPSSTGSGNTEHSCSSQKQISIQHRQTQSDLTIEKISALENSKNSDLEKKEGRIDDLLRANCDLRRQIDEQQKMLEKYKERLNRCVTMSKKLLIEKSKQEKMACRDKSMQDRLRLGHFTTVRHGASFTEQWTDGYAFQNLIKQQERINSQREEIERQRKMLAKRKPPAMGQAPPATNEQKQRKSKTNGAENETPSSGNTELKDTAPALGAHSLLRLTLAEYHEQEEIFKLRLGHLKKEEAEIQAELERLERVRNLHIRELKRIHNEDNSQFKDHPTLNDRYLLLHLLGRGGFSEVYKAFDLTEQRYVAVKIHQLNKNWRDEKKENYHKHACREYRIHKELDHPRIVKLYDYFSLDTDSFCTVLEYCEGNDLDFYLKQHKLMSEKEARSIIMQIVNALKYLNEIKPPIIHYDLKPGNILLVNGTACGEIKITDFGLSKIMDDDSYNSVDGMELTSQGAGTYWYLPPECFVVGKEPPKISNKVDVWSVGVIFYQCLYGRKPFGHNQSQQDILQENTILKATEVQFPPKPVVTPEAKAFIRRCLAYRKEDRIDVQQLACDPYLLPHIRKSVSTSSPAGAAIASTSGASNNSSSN", "assay": "Selectivity interaction (KinomeScan (DiscoverX)) EUB0000045b TLK2"}, "[5]": {"molecular_target": "Activin receptor type-2A (Homo sapiens) (UniProt P27037)", "sequence (P27037 whole entry)": "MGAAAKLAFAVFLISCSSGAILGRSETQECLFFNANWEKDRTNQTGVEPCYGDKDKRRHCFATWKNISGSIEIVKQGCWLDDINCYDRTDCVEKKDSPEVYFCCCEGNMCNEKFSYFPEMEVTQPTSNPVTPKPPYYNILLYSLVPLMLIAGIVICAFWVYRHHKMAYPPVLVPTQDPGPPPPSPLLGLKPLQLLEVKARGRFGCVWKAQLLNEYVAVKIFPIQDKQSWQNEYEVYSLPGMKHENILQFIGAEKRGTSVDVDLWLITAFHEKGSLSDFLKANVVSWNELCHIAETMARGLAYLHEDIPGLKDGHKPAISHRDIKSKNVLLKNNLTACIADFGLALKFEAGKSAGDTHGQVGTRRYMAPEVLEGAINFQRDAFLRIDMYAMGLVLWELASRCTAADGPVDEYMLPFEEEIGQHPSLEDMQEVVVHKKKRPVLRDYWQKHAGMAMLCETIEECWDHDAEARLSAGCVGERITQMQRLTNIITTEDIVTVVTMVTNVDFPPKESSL", "assay": "Selectivity interaction (KinomeScan (DiscoverX)) EUB0000045b ACVR2A"}, "[6]": {"molecular_target": "T3, SNF-related serine/threonine-protein kinase (Homo sapiens) (UniProt Q9NRH2)", "T3 sequence (whole entry)": "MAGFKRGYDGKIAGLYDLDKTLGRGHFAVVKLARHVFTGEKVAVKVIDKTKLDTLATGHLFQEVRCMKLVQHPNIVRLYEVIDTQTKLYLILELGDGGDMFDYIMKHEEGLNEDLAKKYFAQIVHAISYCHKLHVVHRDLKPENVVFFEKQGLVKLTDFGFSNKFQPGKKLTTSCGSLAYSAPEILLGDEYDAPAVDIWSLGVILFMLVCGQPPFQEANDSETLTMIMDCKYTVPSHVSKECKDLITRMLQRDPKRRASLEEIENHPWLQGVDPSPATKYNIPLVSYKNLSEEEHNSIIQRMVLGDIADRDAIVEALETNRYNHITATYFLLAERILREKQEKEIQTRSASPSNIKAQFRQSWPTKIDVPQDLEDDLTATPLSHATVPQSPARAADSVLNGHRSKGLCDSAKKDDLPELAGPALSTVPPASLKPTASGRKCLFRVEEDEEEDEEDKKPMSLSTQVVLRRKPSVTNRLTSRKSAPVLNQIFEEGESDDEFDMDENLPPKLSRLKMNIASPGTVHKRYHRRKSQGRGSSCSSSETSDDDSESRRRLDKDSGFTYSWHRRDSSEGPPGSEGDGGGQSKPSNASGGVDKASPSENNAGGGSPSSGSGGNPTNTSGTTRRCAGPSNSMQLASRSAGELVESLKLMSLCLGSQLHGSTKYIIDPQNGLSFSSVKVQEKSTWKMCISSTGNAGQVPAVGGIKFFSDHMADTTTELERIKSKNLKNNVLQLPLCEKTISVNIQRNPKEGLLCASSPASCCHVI", "assay": "Selectivity interaction (KinomeScan (DiscoverX)) EUB0000045b SNRK"}, "[7]": {"molecular_target": "Tyrosine-protein kinase SYK (Homo sapiens, UniProt P43405)", "assay": "Selectivity interaction (ActivX KiNativ screen (ex vivo kinase selectivity in human PBMCs)) EUB0001619a SYK", "assay_type": "cell-based", "conditions": "PBMC, at 1 µM"}, "[8]": {"molecular_target": "Ribosomal protein S6 kinase alpha-3 (Homo sapiens, UniProt P51812)", "assay": "Selectivity interaction (ActivX KiNativ screen (ex vivo kinase selectivity in human PBMCs)) EUB0001619a RPS6KA3", "assay_type": "cell-based", "conditions": "PBMC, at 1 µM"}, "[9]": {"molecular_target": "Serine/threonine-protein kinase 38 (Homo sapiens) (UniProt Q15208)", "sequence (Q15208 2-465 limits assumed)": "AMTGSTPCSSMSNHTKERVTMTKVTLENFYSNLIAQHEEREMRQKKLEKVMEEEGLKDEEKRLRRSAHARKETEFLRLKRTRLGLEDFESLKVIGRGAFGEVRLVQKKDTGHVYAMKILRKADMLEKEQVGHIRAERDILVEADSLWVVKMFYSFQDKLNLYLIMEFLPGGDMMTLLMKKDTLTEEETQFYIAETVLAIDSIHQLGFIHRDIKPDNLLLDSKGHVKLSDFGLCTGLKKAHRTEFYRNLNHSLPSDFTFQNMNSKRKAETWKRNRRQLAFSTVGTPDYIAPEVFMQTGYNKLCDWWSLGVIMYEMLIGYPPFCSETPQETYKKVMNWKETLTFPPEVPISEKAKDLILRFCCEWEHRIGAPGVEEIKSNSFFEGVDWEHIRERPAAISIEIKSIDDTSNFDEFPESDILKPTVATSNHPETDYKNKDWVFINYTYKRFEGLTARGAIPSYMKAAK", "assay": "Selectivity interaction (Kinase panel (KiNativ target engagement assay in Jurkat cells)) EUB0001635a STK38", "assay_type": "cell-based", "conditions": "Selectivity number of off-targets 0.0, Selectivity number of targets 233.0, Source Knowledge https://www.sciencedirect.com/science/article/pii/S2451945619300674?via%3Dihub, at 1 µM"}, "[10]": {"system": "Phosphatidylinositol 4,5-bisphosphate 3-kinase catalytic subunit alpha isoform (Homo sapiens), P42336 [E542K]", "sequence (P42336 whole entry E542K, canonical isoform)": "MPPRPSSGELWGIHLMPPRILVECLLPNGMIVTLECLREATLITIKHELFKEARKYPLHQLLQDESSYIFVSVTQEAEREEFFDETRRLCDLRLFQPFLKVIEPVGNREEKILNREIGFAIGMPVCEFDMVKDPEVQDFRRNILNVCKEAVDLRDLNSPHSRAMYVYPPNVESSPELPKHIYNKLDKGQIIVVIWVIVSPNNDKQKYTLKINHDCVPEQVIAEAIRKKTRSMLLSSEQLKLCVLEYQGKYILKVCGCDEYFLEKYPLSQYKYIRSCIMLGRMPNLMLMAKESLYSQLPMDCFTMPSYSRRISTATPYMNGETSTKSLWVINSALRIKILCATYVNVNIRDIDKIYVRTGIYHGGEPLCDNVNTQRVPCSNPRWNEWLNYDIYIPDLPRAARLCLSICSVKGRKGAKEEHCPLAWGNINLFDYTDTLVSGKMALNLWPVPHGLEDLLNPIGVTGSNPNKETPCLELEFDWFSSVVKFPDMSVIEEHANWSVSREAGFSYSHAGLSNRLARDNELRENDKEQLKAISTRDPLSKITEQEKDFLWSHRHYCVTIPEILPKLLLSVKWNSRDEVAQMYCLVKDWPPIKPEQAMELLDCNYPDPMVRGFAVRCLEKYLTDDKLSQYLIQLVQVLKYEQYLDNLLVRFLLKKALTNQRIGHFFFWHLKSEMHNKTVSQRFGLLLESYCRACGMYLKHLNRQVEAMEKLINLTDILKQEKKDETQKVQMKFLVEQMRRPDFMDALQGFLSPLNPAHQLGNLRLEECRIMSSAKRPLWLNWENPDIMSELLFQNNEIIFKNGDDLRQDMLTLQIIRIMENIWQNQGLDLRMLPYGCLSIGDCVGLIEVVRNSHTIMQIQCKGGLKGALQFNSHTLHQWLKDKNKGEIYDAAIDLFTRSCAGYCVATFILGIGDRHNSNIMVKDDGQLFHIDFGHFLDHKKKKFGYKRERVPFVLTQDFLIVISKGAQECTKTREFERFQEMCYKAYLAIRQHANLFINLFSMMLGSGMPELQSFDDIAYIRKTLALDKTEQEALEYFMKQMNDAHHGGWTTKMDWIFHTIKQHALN", "assay": "(§1) Selectivity interaction (KinomeScan (DiscoverX)) EUB0000666a PIK3CA", "conditions": "at 10 µM"}, "[11]": {"system": "Phosphatidylinositol 4,5-bisphosphate 3-kinase catalytic subunit alpha isoform (Homo sapiens), P42336 [M1043I]", "assay": "as §1", "conditions": "at 10 µM"}, "[12]": {"molecular_target": "Phosphatidylinositol 4,5-bisphosphate 3-kinase catalytic subunit alpha isoform (Homo sapiens) (UniProt P42336)", "assay": "as §1", "conditions": "at 10 µM"}, "[13]": {"system": "Phosphatidylinositol 4,5-bisphosphate 3-kinase catalytic subunit alpha isoform (Homo sapiens), P42336 [I800L]", "assay": "as §1", "conditions": "at 10 µM"}, "[14]": {"system": "Phosphatidylinositol 4,5-bisphosphate 3-kinase catalytic subunit alpha isoform (Homo sapiens), P42336 [Q546K]", "assay": "as §1", "conditions": "at 10 µM"}, "[15]": {"system": "Phosphatidylinositol 4,5-bisphosphate 3-kinase catalytic subunit alpha isoform (Homo sapiens), P42336 [E545K]", "sequence (P42336 whole entry E545K, canonical isoform)": "as the sequence (P42336 whole entry E542K, canonical isoform) above, with K542E, E545K counted along it", "assay": "as §1", "conditions": "at 10 µM"}, "[16]": {"system": "Phosphatidylinositol 4,5-bisphosphate 3-kinase catalytic subunit alpha isoform (Homo sapiens), P42336 [C420R]", "assay": "as §1", "conditions": "at 10 µM"}, "[17]": {"system": "Phosphatidylinositol 4,5-bisphosphate 3-kinase catalytic subunit alpha isoform (Homo sapiens), P42336 [H1047L]", "assay": "as §1", "conditions": "at 10 µM"}, "[18]": {"system": "Phosphatidylinositol 4,5-bisphosphate 3-kinase catalytic subunit alpha isoform (Homo sapiens), P42336 [E545A]", "assay": "as §1", "conditions": "at 10 µM"}, "[19]": {"system": "Phosphatidylinositol 4,5-bisphosphate 3-kinase catalytic subunit alpha isoform (Homo sapiens), P42336 [H1047Y]", "assay": "as §1", "conditions": "at 10 µM"}}}
{"smiles": "CN(C)C/C=C/C(=O)Nc1ccc(C(=O)N2CCCC(Nc3ncc(Cl)c(-c4c[nH]c5ccccc45)n3)C2)cc1", "note": "(configuration not stated)", "values": [{"measurement": "% of control", "setting": "[1]", "result": 96, "unit": "%"}]}
{"smiles": "Cn1cc(-n2cnc3c(NCc4nc5cc(Cl)c(Cl)cc5[nH]4)nc(N4CCOCC4)nc32)cn1", "values": [{"measurement": "% of control", "setting": "[2]", "result": 7.05, "unit": "%"}]}
{"smiles": "Nc1cnc(N2CCc3cc(S(=O)(=O)Nc4c(F)cc(Cl)cc4F)cc(N4CCCC4=O)c32)nc1", "note": "[TP-020n]", "values": [{"measurement": "% of control", "setting": "[3]", "result": 78, "unit": "%"}]}
{"smiles": "C=CC(=O)Nc1cc(-n2c(=O)ccc3cnc4ccc(-c5ccc(NS(C)(=O)=O)cc5)cc4c32)ccc1C", "values": [{"measurement": "% of control", "setting": "[4]; at 1 µM", "result": 100, "unit": "%"}, {"measurement": "% of control", "setting": "[4]; at 10 µM", "result": 100, "unit": "%"}, {"measurement": "% of control", "setting": "[5]; at 1 µM", "result": 94, "unit": "%"}, {"measurement": "% of control", "setting": "[5]; at 10 µM", "result": 88, "unit": "%"}, {"measurement": "% of control", "setting": "[6]; at 1 µM", "result": 100, "unit": "%"}, {"measurement": "% of control", "setting": "[6]; at 10 µM", "result": 58, "unit": "%"}]}
{"smiles": "N#Cc1cccc(-c2c[nH]c3ncnc(N4CCOCC4)c23)c1", "values": [{"measurement": "% of inhibition", "setting": "[7]", "result": -12, "unit": "%"}, {"measurement": "% of inhibition", "setting": "[8]", "result": -3, "unit": "%"}]}
{"smiles": "C=CC(=O)Nc1ccc(C(=O)Nc2[nH]nc3c2CN(C(=O)N[C@H](CN(C)C)c2ccccc2)C3(C)C)cc1", "values": [{"measurement": "% of engagement", "setting": "[9]", "result": 0.3, "unit": "%"}]}
{"smiles": "O=C(NOC[C@H](O)CO)c1ccc(F)c(F)c1Nc1ccc(I)cc1F", "values": [{"measurement": "% of control", "setting": "[10]", "result": 57, "unit": "%"}, {"measurement": "% of control", "setting": "[11]", "result": 42, "unit": "%"}, {"measurement": "% of control", "setting": "[12]", "result": 56, "unit": "%"}, {"measurement": "% of control", "setting": "[13]", "result": 33, "unit": "%"}, {"measurement": "% of control", "setting": "[14]", "result": 41, "unit": "%"}, {"measurement": "% of control", "setting": "[15]", "result": 53, "unit": "%"}, {"measurement": "% of control", "setting": "[16]", "result": 50, "unit": "%"}, {"measurement": "% of control", "setting": "[17]", "result": 45, "unit": "%"}, {"measurement": "% of control", "setting": "[18]", "result": 45, "unit": "%"}, {"measurement": "% of control", "setting": "[19]", "result": 57, "unit": "%"}]}
